Laboratory results taken from US12459951B2, “Compounds that interact with RAS superfamily proteins for treatment of cancers, inflammatory diseases, rasopathies, and fibrotic disease” (SHY Therapeutics, LLC, priority 2022, dated 2025).

Assays:
[1] = tested on: MiaPaca-2 (expressing KRAS G12C mutant); assay: Proliferation Assay (Cell Viability Assay); type: cell-based; conditions: Homo sapiens, MIA PaCa-2; read-out: Proliferation in MiaPaca-2: IC50
Method in brief: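 After 2–4 days' exposure at 37 °C, 5% CO2 to a single 10 μM final concentration or a dilution series (IC50), percent proliferation inhibition was derived from CellTiter 96 Aqueous One viability readings. The medium contained 0.3% DMSO and 10% FBS. KRAS G12C MiaPaca-2 cells were plated at 2000–5000/well the day before.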

[2] = tested on: KRas G12D mutant; assay: Ras GTP Binding Domain Inhibition Assay (Ras Superfamily Assay); conditions: 20 μM compound; for KRas G12D mutant + SOS: % inh.: with SOS; for KRas G12D mutant: % inh.: without SOS
Method in brief: (§1)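 His-tagged GTPases immobilised on nickel-coated plates, pre-incubated with compound (20 μM single point, or serial dilution for IC50) 3 h at room temperature, with or without 10-30 μg/mL Sos (residues 556-1049) in the final hour. Bound Cy3- or Cy5-GTP (100 nM, 45 min) measured by fluorescence after washing.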

[3] = tested on: KRas wild type; assay: as above; conditions: 20 μM compound; for KRas wild type + SOS: % inh.: with SOS; for KRas wild type: % inh.: without SOS
Method in brief: as §1

[4] = target: T1, Rac-1 (Homo sapiens, UniProt P63000); assay: as above; conditions: read-out: Rac-1: % inh.
T1 construct: made in house
Method in brief: as §1

Row | SMILES | IC50 [1] | KRas G12D mutant + SOS: % inh. [2] | KRas G12D mutant: % inh. [2] | KRas wild type + SOS: % inh. [3] | KRas wild type: % inh. [3] | inhibition at 20 µM [4]
1 | Cc1c(-c2ccn(C)n2)cn2nc(-c3nccn3C)nc(Nc3cn(C(C)C)nn3)c12 [Compound 109, N-(1-Isopropyl-1H-1,2,3-triazol-4-yl)-5-methyl-2-(1-methyl-1H-imidazol-2-yl)-6-(1-methyl-1H-pyrazol-3-yl)pyrrolo[2,1-f][1,2,4]triazin-4-amine] | 510 to 1000 nM | C (C = 50-75% inhibition) | D (D = 76-100% inhibition) | C (C = 50-75% inhibition) | D (D = 76-100% inhibition) | 76 to 100%
2 | COc1cnc(Nc2nc(-c3nccn3C)nn3cc(-c4ccn(C)n4)c(C)c23)cn1 [Compound 110, N-(5-Methoxypyrazin-2-yl)-5-methyl-2-(1-methyl-1H-imidazol-2-yl)-6-(1-methyl-1H-pyrazol-3-yl)pyrrolo[2,1-f][1,2,4]triazin-4-amine] | < 150 nM | B (B = 26-49% inhibition) | C (C = 50-75% inhibition) | C (C = 50-75% inhibition) | B (B = 26-49% inhibition) | 50 to 75%
3 | Cc1c(-c2ccn(C)n2)cn2nc(-c3nccn3C)nc(Nc3ccn(C4CC4)n3)c12 [Compound 111, N-(1-Cyclopropyl-1H-pyrazol-3-yl)-5-methyl-2-(1-methyl-1H-imidazol-2-yl)-6-(1-methyl-1H-pyrazol-3-yl)pyrrolo[2,1-f][1,2,4]triazin-4-amine] | 150 to 500 nM | B (B = 26-49% inhibition) | B (B = 26-49% inhibition) | A (A = 1-25% inhibition) | C (C = 50-75% inhibition) | 26 to 49%
4 | COc1cccnc1Nc1nc(-c2nccn2C)nn2cc(-c3ccn(C)n3)c(C)c12 [Compound 112, N-(3-Methoxypyridin-2-yl)-5-methyl-2-(1-methyl-1H-imidazol-2-yl)-6-(1-methyl-1H-pyrazol-3-yl)pyrrolo[2,1-f][1,2,4]triazin-4-amine] | < 150 nM | A (A = 1-25% inhibition) | A (A = 1-25% inhibition) | 0 (0 = 0% inhibition) | A (A = 1-25% inhibition) | 0%
5 | Cc1c(-c2ccn(C)n2)cn2nc(-c3nccn3C)nc(Nc3n[nH]c(C4CC4)n3)c12 [Compound 113, N-(5-Cyclopropyl-1H-1,2,4-triazol-3-yl)-5-methyl-2-(1-methyl-1H-imidazol-2-yl)-6-(1-methyl-1H-pyrazol-3-yl)pyrrolo[2,1-f][1,2,4]triazin-4-amine] | < 150 nM | D (D = 76-100% inhibition) | D (D = 76-100% inhibition) | D (D = 76-100% inhibition) | C (C = 50-75% inhibition) | 76 to 100%
6 | COc1ccnc(Nc2nc(-c3nccn3C)nn3cc(-c4ccn(C)n4)c(C)c23)n1.Cl [Compound 114, N-(4-Methoxypyrimidin-2-yl)-5-methyl-2-(1-methyl-1H-imidazol-2-yl)-6-(1-methyl-1H-pyrazol-3-yl)pyrrolo[2,1-f][1,2,4]triazin-4-amine hydrochloride salt] | < 150 nM | D (D = 76-100% inhibition) | D (D = 76-100% inhibition) | D (D = 76-100% inhibition) | D (D = 76-100% inhibition) | 76 to 100%

Results, then the compound that gave them:

Row | IC50 [1] | KRas G12D mutant + SOS: % inh. [2] | KRas G12D mutant: % inh. [2] | KRas wild type + SOS: % inh. [3] | KRas wild type: % inh. [3] | inhibition at 20 µM [4] | SMILES
7 | < 150 nM | C (C = 50-75% inhibition) | C (C = 50-75% inhibition) | C (C = 50-75% inhibition) | D (D = 76-100% inhibition) | 1 to 25% | Cc1c(-c2ccn(C)n2)cn2nc(-c3nccn3C)nc(Nc3ncccn3)c12.Cl [Compound 115, 5-Methyl-2-(1-methyl-1H-imidazol-2-yl)-6-(1-methyl-1H-pyrazol-3-yl)-N-(pyrimidin-2-yl)pyrrolo[2,1-f][1,2,4]triazin-4-amine hydrochloride salt]
8 | < 150 nM | C (C = 50-75% inhibition) | C (C = 50-75% inhibition) | D (D = 76-100% inhibition) | C (C = 50-75% inhibition) | 50 to 75% | Cc1c(-c2ccn(C)n2)cn2nc(-c3nccn3C)nc(Nc3ccncn3)c12.Cl [Compound 116, 5-Methyl-2-(1-methyl-1H-imidazol-2-yl)-6-(1-methyl-1H-pyrazol-3-yl)-N-(pyrimidin-4-yl)pyrrolo[2,1-f][1,2,4]triazin-4-amine hydrochloride salt]
9 | < 150 nM | A (A = 1-25% inhibition) | A (A = 1-25% inhibition) | A (A = 1-25% inhibition) | A (A = 1-25% inhibition) | 1 to 25% | COc1cnc(Nc2nc(-c3nccn3C)nn3cc(-c4ccn(C)n4)c(C)c23)nc1.Cl [Compound 117, N-(5-Methoxypyrimidin-2-yl)-5-methyl-2-(1-methyl-1H-imidazol-2-yl)-6-(1-methyl-1H-pyrazol-3-yl)pyrrolo[2,1-f][1,2,4]triazin-4-amine hydrochloride salt]
10 | < 150 nM | D (D = 76-100% inhibition) | D (D = 76-100% inhibition) | D (D = 76-100% inhibition) | D (D = 76-100% inhibition) | 76 to 100% | Cc1c(-c2ccn(C)n2)cn2nc(-c3nccn3C)nc(Nc3ccccn3)c12 [Compound 118, 5-Methyl-2-(1-methyl-1H-imidazol-2-yl)-6-(1-methyl-1H-pyrazol-3-yl)-N-(pyridin-2-yl)pyrrolo[2,1-f][1,2,4]triazin-4-amine]
11 | 510 to 1000 nM | B (B = 26-49% inhibition) | C (C = 50-75% inhibition) | A (A = 1-25% inhibition) | C (C = 50-75% inhibition) | 26 to 49% | Cc1c(-c2ccn(C)n2)cn2nc(-c3nccn3C)nc(Nc3nnco3)c12.Cl [Compound 119, N-(5-Methyl-2-(1-methyl-1H-imidazol-2-yl)-6-(1-methyl-1H-pyrazol-3-yl)pyrrolo[2,1-f][1,2,4]triazin-4-yl)-1,3,4-oxadiazol-2-amine hydrochloride salt]
12 | < 150 nM | A (A = 1-25% inhibition) | B (B = 26-49% inhibition) | C (C = 50-75% inhibition) | A (A = 1-25% inhibition) | 26 to 49% | Cc1c(-c2ccn(C)n2)cn2nc(-c3nccn3C)nc(Nc3cnccn3)c12 [Compound 120, 5-Methyl-2-(1-methyl-1H-imidazol-2-yl)-6-(1-methyl-1H-pyrazol-3-yl)-N-(pyrazin-2-yl)pyrrolo[2,1-f][1,2,4]triazin-4-amine]
